Data taken from PubChem BioAssay AID1963839 (Molecular Pharmacology Branch, DTP, NCI, 2024).
pIC50: −log10 of the molar value.

Tested on: 817829-284-R-J1-PDC complex spheroid viability
Assay: Anticancer human tumor 817829-284-R-J1-PDC patient-derived colon adenocarcinoma cell line growth inhibition [POLQ]
Conditions: for pIC50: curve of first compound; for viability, T/C: stronger effect = lower value
Method in brief: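 Patient-derived tumour cells were co-cultured with HUVEC and mesenchymal stem cells as multicellular spheroids at 37 °C. They were treated with POLQ inhibitors (novobiocin, ART-558, RP6685) alone or combined with other agents. Top concentrations were at or near clinical Cmax (otherwise 10 microM; SN-38 at 1 microM), decreasing in half-log steps.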

[1] = second compound 0.0316 µM, first compound 0.00316 µM
[2] = second compound 0.0316 µM, first compound 0.01 µM
[3] = second compound 0.0316 µM, first compound 0.0316 µM
[4] = second compound 0.0316 µM, first compound 0.1 µM
[5] = second compound 0.1 µM, first compound 0.00316 µM
[6] = second compound 0.1 µM, first compound 0.01 µM
[7] = second compound 0.1 µM, first compound 0.0316 µM
[8] = second compound 0.1 µM, first compound 0.1 µM
[9] = second compound 0.316 µM, first compound 0.00316 µM
[10] = second compound 0.316 µM, first compound 0.01 µM
[11] = second compound 0.316 µM, first compound 0.0316 µM
[12] = second compound 0.316 µM, first compound 0.1 µM
[13] = second compound 1 µM, first compound 0.00316 µM
[14] = second compound 1 µM, first compound 0.01 µM
[15] = second compound 1 µM, first compound 0.0316 µM
[16] = second compound 1 µM, first compound 0.1 µM
[17] = second compound 3.16 µM, first compound 0.00316 µM
[18] = second compound 3.16 µM, first compound 0.01 µM
[19] = second compound 3.16 µM, first compound 0.0316 µM
[20] = second compound 3.16 µM, first compound 0.1 µM
[21] = second compound 10 µM, first compound 0.00316 µM
[22] = second compound 10 µM, first compound 0.01 µM
[23] = second compound 10 µM, first compound 0.0316 µM
[24] = second compound 10 µM, first compound 0.1 µM
[25] = second compound 0.0316 µM, first compound 0.316 µM
[26] = second compound 0.0316 µM, first compound 1 µM
[27] = second compound 0.1 µM, first compound 0.316 µM
[28] = second compound 0.1 µM, first compound 1 µM
[29] = second compound 0.316 µM, first compound 0.316 µM
[30] = second compound 0.316 µM, first compound 1 µM
[31] = second compound 1 µM, first compound 0.316 µM
[32] = second compound 1 µM, first compound 1 µM
[33] = second compound 3.16 µM, first compound 0.316 µM
[34] = second compound 3.16 µM, first compound 1 µM
[35] = second compound 10 µM, first compound 0.316 µM
[36] = second compound 10 µM, first compound 1 µM
[37] = second compound 0.0316 µM, first compound 3.16 µM
[38] = second compound 0.0316 µM, first compound 10 µM
[39] = second compound 0.1 µM, first compound 3.16 µM
[40] = second compound 0.1 µM, first compound 10 µM
[41] = second compound 0.316 µM, first compound 3.16 µM
[42] = second compound 0.316 µM, first compound 10 µM
[43] = second compound 1 µM, first compound 3.16 µM
[44] = second compound 1 µM, first compound 10 µM
[45] = second compound 3.16 µM, first compound 3.16 µM
[46] = second compound 3.16 µM, first compound 10 µM
[47] = second compound 10 µM, first compound 3.16 µM
[48] = second compound 10 µM, first compound 10 µM
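Also: spheroids exposed to compounds for 7 days.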
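For viability, T/C in this document: 100% = DMSO vehicle-treated spheroids.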

CC[C@@]1(O)C(=O)OCc2c1cc1n(c2=O)Cc2cc3c(CN(C)C)c(O)ccc3nc2-1 + COC1C(OC(N)=O)C(O)C(Oc2ccc3c(O)c(NC(=O)c4ccc(O)c(CC=C(C)C)c4)c(=O)oc3c2C)OC1(C)C was tested, and the pIC50 (second compound 0.0316 µM) was 8.31, the pIC50 (second compound 0.1 µM) was 8.21 and the pIC50 (second compound 0.316 µM) was 8.25. For the same compound, the pIC50 (second compound 1 µM) was 8.12, the pIC50 (second compound 3.16 µM) was 8.10 and the pIC50 (second compound 10 µM) was 8.23. For the same compound, the viability, T/C (second compound 0.0316 µM, first compound 0.000316 µM) was 80.6%, the viability, T/C (second compound 0.0316 µM, first compound 0.001 µM) was 87.4% and the viability, T/C [1] was 58.6%. It also gave a viability, T/C [2] of 32.5%, a viability, T/C [3] of 21.7% and a viability, T/C [4] of 16.1%. The viability, T/C (second compound 0.1 µM, first compound 0.000316 µM) was 69.7%, the viability, T/C (second compound 0.1 µM, first compound 0.001 µM) was 81.7% and the viability, T/C [5] was 76.2%. For the same compound, the viability, T/C [6] was 30.9%, the viability, T/C [7] was 21.4% and the viability, T/C [8] was 15.7%. The viability, T/C (second compound 0.316 µM, first compound 0.000316 µM) was 74.4%, the viability, T/C (second compound 0.316 µM, first compound 0.001 µM) was 78.8% and the viability, T/C [9] was 57.8%. The viability, T/C [10] was 40.8%, the viability, T/C [11] was 20.1% and the viability, T/C [12] was 17.3%. It also gave a viability, T/C (second compound 1 µM, first compound 0.000316 µM) of 83.2%, a viability, T/C (second compound 1 µM, first compound 0.001 µM) of 106% and a viability, T/C [13] of 84.1%. It also gave a viability, T/C [14] of 38.6%, a viability, T/C [15] of 20.2% and a viability, T/C [16] of 16.2%. For the same compound, the viability, T/C (second compound 3.16 µM, first compound 0.000316 µM) was 106%, the viability, T/C (second compound 3.16 µM, first compound 0.001 µM) was 78.2% and the viability, T/C [17] was 99.8%. For the same compound, the viability, T/C [18] was 38.8%, the viability, T/C [19] was 20.5% and the viability, T/C [20] was 18.4%. It also gave a viability, T/C (second compound 10 µM, first compound 0.000316 µM) of 97.6%, a viability, T/C (second compound 10 µM, first compound 0.001 µM) of 87.6% and a viability, T/C [21] of 69.3%. It also gave a viability, T/C [22] of 34%, a viability, T/C [23] of 20.6% and a viability, T/C [24] of 19.1%.

CCc1c2c(nc3ccc(O)cc13)-c1cc3c(c(=O)n1C2)COC(=O)[C@]3(O)CC + COC1C(OC(N)=O)C(O)C(Oc2ccc3c(O)c(NC(=O)c4ccc(O)c(CC=C(C)C)c4)c(=O)oc3c2C)OC1(C)C was tested, and the pIC50 (second compound 0.0316 µM) was greater than 8.50, the pIC50 (second compound 0.1 µM) was greater than 8.50 and the pIC50 (second compound 0.316 µM) was greater than 8.50. For the same compound, the pIC50 (second compound 1 µM) was greater than 8.50, the pIC50 (second compound 3.16 µM) was greater than 8.50 and the pIC50 (second compound 10 µM) was greater than 8.50. It also gave a viability, T/C [1] of 25.5%, a viability, T/C [2] of 17.6% and a viability, T/C [3] of 10.6%. It also gave a viability, T/C [4] of 8.89%, a viability, T/C [25] of 5.32% and a viability, T/C [26] of 3.77%. For the same compound, the viability, T/C [5] was 17.9%, the viability, T/C [6] was 16.7% and the viability, T/C [7] was 11%. The viability, T/C [8] was 7%, the viability, T/C [27] was 5.78% and the viability, T/C [28] was 3%. It also gave a viability, T/C [9] of 21.2%, a viability, T/C [10] of 15% and a viability, T/C [11] of 11.7%. It also gave a viability, T/C [12] of 8.14%, a viability, T/C [29] of 5.95% and a viability, T/C [30] of 2.76%. It also gave a viability, T/C [13] of 18.1%, a viability, T/C [14] of 16.1% and a viability, T/C [15] of 11.3%. For the same compound, the viability, T/C [16] was 7.95%, the viability, T/C [31] was 8.47% and the viability, T/C [32] was 3.04%. For the same compound, the viability, T/C [17] was 14.1%, the viability, T/C [18] was 16.3% and the viability, T/C [19] was 11%. The viability, T/C [20] was 7.05%, the viability, T/C [33] was 4.82% and the viability, T/C [34] was 3.32%. It also gave a viability, T/C [21] of 23.3%, a viability, T/C [22] of 14.8% and a viability, T/C [23] of 12.8%. For the same compound, the viability, T/C [24] was 6.77%, the viability, T/C [35] was 5.07% and the viability, T/C [36] was 2.89%.

Work on Nc1ccn(C2OC(CO)C(O)C2(F)F)c(=O)n1 (stereo not drawn) + COC1C(OC(N)=O)C(O)C(Oc2ccc3c(O)c(NC(=O)c4ccc(O)c(CC=C(C)C)c4)c(=O)oc3c2C)OC1(C)C yielded a pIC50 (second compound 0.0316 µM) greater than 7.50, a pIC50 (second compound 0.1 µM) greater than 7.50 and a pIC50 (second compound 0.316 µM) greater than 7.50. The pIC50 (second compound 1 µM) was greater than 7.50, the pIC50 (second compound 3.16 µM) was greater than 7.50 and the pIC50 (second compound 10 µM) was greater than 7.50. For the same compound, the viability, T/C [3] was 5.87%, the viability, T/C [4] was 4.61% and the viability, T/C [25] was 5.48%. For the same compound, the viability, T/C [26] was 4.5%, the viability, T/C [37] was 3.65% and the viability, T/C [38] was 3.38%. The viability, T/C [7] was 5.96%, the viability, T/C [8] was 4.96% and the viability, T/C [27] was 5.53%. The viability, T/C [28] was 4.76%, the viability, T/C [39] was 3.8% and the viability, T/C [40] was 3.28%. For the same compound, the viability, T/C [11] was 5.1%, the viability, T/C [12] was 4.62% and the viability, T/C [29] was 5.85%. The viability, T/C [30] was 5.46%, the viability, T/C [41] was 3.59% and the viability, T/C [42] was 2.73%. For the same compound, the viability, T/C [15] was 4.99%, the viability, T/C [16] was 4.37% and the viability, T/C [31] was 5.56%. The viability, T/C [32] was 4.58%, the viability, T/C [43] was 4.04% and the viability, T/C [44] was 3.14%. The viability, T/C [19] was 4.75%, the viability, T/C [20] was 4.78% and the viability, T/C [33] was 5.45%. For the same compound, the viability, T/C [34] was 4.57%, the viability, T/C [45] was 3.73% and the viability, T/C [46] was 3.65%. For the same compound, the viability, T/C [23] was 6.16%, the viability, T/C [24] was 4.98% and the viability, T/C [35] was 5.43%. For the same compound, the viability, T/C [36] was 5.17%, the viability, T/C [47] was 4.49% and the viability, T/C [48] was 3.17%.

O=c1[nH]cc(F)c(=O)[nH]1 + COC1C(OC(N)=O)C(O)C(Oc2ccc3c(O)c(NC(=O)c4ccc(O)c(CC=C(C)C)c4)c(=O)oc3c2C)OC1(C)C was tested, and the pIC50 (second compound 0.0316 µM) was 5.62, the pIC50 (second compound 0.1 µM) was 5.05 and the pIC50 (second compound 0.316 µM) was 5.47. It also gave a pIC50 (second compound 1 µM) of 5.53, a pIC50 (second compound 3.16 µM) of 5.67 and a pIC50 (second compound 10 µM) of 5.05. For the same compound, the viability, T/C [3] was 97.6%, the viability, T/C [4] was 144% and the viability, T/C [25] was 102%. For the same compound, the viability, T/C [26] was 68.8%, the viability, T/C [37] was 42.6% and the viability, T/C [38] was 43.1%. It also gave a viability, T/C [7] of 90.7%, a viability, T/C [8] of 94% and a viability, T/C [27] of 92.5%. For the same compound, the viability, T/C [28] was 77.6%, the viability, T/C [39] was 50.2% and the viability, T/C [40] was 50%. It also gave a viability, T/C [11] of 80%, a viability, T/C [12] of 84.2% and a viability, T/C [29] of 70%. For the same compound, the viability, T/C [30] was 70.2%, the viability, T/C [41] was 51.1% and the viability, T/C [42] was 26.6%. It also gave a viability, T/C [15] of 98.3%, a viability, T/C [16] of 86.8% and a viability, T/C [31] of 95.1%. It also gave a viability, T/C [32] of 86.5%, a viability, T/C [43] of 47.2% and a viability, T/C [44] of 47.3%. It also gave a viability, T/C [19] of 128%, a viability, T/C [20] of 114% and a viability, T/C [33] of 108%. For the same compound, the viability, T/C [34] was 57.8%, the viability, T/C [45] was 50.4% and the viability, T/C [46] was 39.9%. It also gave a viability, T/C [23] of 107%, a viability, T/C [24] of 101% and a viability, T/C [35] of 77.9%. For the same compound, the viability, T/C [36] was 84.3%, the viability, T/C [47] was 62.3% and the viability, T/C [48] was 47.4%.
